Test results as given in patent EP1658844A1, “Use of artemisinin derivatives in the manufacture of a medicament for the treatment of melanoma” (Schuler, Gerold, priority 2004, dated 2006).

How the values were obtained:
[1] = test system: metastatic uveal melanoma
Description: In the experimental examples below, standard techniques of therapeutical agent administration were used. […] Artesunate was provided by Sanofi Synthelabo, France.
The clinical course of the disease and the treatment modalities are depicted in detail in Figure 1. […] A chemotherapy with Dacarbazin (DTIC) was initiated at a concentration of 850 mg per m^2 body surface.
The clinical course of the disease and the treatment modalities are depicted in detail in Figure 2. […] A chemotherapy with DTIC at a concentration of 850 mg per m^2 body surface was initiated. […] In addition, the patient received an iron medication (three times daily ferroglycine sulfate equivalent to 40 mg Fe^2+) to potentially increase the efficacy of ART.

nucleic acid synthesis = settings: cited from earlier work
P388 leukemia = settings: NCI report on NSC 369397; cited from earlier work
[2] = test system: cell line panels consisting of 60 lines; settings: 60 cell lines in nine disease-related subpanels; cited from earlier work
tumor = settings: combination treatment with ferrous sulfate, three dog studies; cited from earlier work
uveal melanoma = settings: largest prospective trial, metastatic uveal melanoma; cited from earlier work
[3] = within the group of artemisinin analogs; cited from earlier work

For `C[C@H]1[C@H](OC(=O)CCC(=O)O)O[C@@H]2O[C@@]3(C)CC[C@H]4[C@H](C)CC[C@@H]1[C@@]24OO3` [ART, (3R,5aS,6R,8aS,9R,10S,12R,12aR)-Decahydro-3,6,9-trimethyl-3,12-epoxy-12H-pyrano[4,3-j]1,2-benzodioxepin-10-ol,hydrogen succinate], the “side effects throughout the combination therapy” value ([1]; human, in vivo) was “no additional side effects”, the “toxicity of ART-treatment” value ([1]; human, in vivo) was “without measurable toxicity” and the “survival after start of the ART/Fotemustine therapy” value ([1]; patient 1) was 11 months. For the same molecule, the “response at first staging” value ([1]; patient 1, ART 2 times daily 50 mg p.o. in combination with Fotemustine, three months after initiation) was “mixed response”, the “time to death after entry into stage IV according to AJCC” value ([1]; patient 1, DTIC, then Fotemustine, then ART plus chemotherapy) was 23 months and the “survival (still alive) after initiation of ART/DTIC-therapy” value ([1]; patient 2) was ≥ 37 months. For the same molecule, the response ([1]; patient 2, 50 mg ART twice daily p.o. with DTIC and ferroglycine sulfate, after 21 courses of DTIC, the last 11 with ART) was “objective response”, the “survival (still alive) after first diagnosis of stage IV uveal melanoma” value ([1]; patient 2, ART added to Dacarbazin) was ≥ 37 months and the “activity relative to artemisinin in ability to inhibit nucleic acid synthesis” value (nucleic acid synthesis) was 100 times.
For `C[C@@H]1CC[C@H]2[C@@H](C)C(=O)O[C@@H]3O[C@@]4(C)CC[C@@H]1[C@]32OO4` [Artemisinin], the “activity against P388 leukemia” value (P388 leukemia) is given as “inactive”, the anticancer activity [2] is given as “very little anticancer activity” and the tumor size (tumor) is given as “reduction of tumor size”.
In the case of `CCOP(=O)(OCC)C(C)NC(=O)N(CCCl)N=O` (stereo not drawn) [Fotemustine], the “complete responses (CR)” value (uveal melanoma) is listed as “one CR in 48 patients”.
For `CCO[C@H]1O[C@@H]2O[C@@]3(C)CC[C@H]4[C@H](C)CC[C@@H]([C@H]1C)[C@@]24OO3` [arteether], the “activity relative to artemisinin in ability to inhibit nucleic acid synthesis” value (nucleic acid synthesis) is given as 100 times.
In the case of `C[C@H]1[C@@H](OCc2ccc(C(=O)O)cc2)O[C@@H]2O[C@@]3(C)CC[C@H]4[C@H](C)CC[C@@H]1[C@@]24OO3` [artelinic acid], the “activity relative to artemisinin in ability to inhibit nucleic acid synthesis” value (nucleic acid synthesis) is listed as 100 times, the stability [3] is listed as “most stable” and the water solubility [3] is listed as “most water soluble”.
For `CCCOC(=O)OC1O[C@@H]2O[C@@]3(C)CC[C@H]4[C@H](C)CC[C@@H]([C@H]1C)[C@@]24OO3` (stereo partly drawn) [propylcarbonate dihydroartemisinin], the “activity relative to artemisinin in ability to inhibit nucleic acid synthesis” value (nucleic acid synthesis) is given as 100 times.
